Usually EC50 stands for the midpoint of the concentration-response curve.

Consider five compounds from paper PMC6777825, “Differential scanning fluorimetric analysis of the amino-acid binding to taste receptor using a model receptor protein, the ligand-binding domain of fish T1r2a/T1r3” (PLoS ONE, 2019).

The target in one data set is medaka T1r2a/T1r3LBD (Oryzias latipes, UniProt A0A173M094+A0A173M0G2). Put plainly: Differential scanning fluorimetry (DSF) thermal shift ligand-binding assay. Set-up: species or system O. latipes. Particulars: for ΔTm: average ± s.e.m., n = 4; for potency estimated from few doses: ΔH0 72.1 kcal mol-1, read-out: Kd-app estimated at a single ligand concentration; for pKd-app: log 1/Kd-app, converted from S1 Table values (10 mM; L-Ala 1 mM, L-Gln 0.1 mM). The protocol: The protein sample was prepared as described previously. Briefly, Drosophila S2 cells (Invitrogen) stably expressing C-terminal FLAG-tagged T1r2aLBD and T1r3LBD [11, 21] were cultured in ExpressFiveSFM (LifeTechnologies) for five days at 27 °C. The T1r2a/T1r3-LBD protein was purified from the culture medium by the use of ANTI-FLAG M2 Affinity Gel (SIGMA). The purified protein was dialyzed against the assay buffer (20 mM Tris-HCl, 300 mM NaCl, 2 mM CaCl2, pH 8.0).
Sequence of medaka T1r2a/T1r3LBD (A0A173M094 entry or part of it): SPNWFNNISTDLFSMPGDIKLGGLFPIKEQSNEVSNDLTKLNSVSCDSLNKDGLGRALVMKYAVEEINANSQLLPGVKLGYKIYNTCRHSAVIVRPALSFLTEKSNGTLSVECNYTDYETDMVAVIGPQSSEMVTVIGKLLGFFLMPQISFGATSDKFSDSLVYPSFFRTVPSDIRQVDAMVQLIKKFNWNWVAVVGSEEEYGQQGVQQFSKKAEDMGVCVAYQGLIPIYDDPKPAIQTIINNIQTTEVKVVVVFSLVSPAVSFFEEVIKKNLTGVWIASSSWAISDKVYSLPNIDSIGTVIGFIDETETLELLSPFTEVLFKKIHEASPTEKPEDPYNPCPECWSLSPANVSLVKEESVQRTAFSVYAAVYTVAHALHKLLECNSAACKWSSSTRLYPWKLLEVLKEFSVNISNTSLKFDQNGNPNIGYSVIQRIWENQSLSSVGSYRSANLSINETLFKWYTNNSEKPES
Sequence of medaka T1r2a/T1r3LBD (A0A173M0G2 entry or part of it): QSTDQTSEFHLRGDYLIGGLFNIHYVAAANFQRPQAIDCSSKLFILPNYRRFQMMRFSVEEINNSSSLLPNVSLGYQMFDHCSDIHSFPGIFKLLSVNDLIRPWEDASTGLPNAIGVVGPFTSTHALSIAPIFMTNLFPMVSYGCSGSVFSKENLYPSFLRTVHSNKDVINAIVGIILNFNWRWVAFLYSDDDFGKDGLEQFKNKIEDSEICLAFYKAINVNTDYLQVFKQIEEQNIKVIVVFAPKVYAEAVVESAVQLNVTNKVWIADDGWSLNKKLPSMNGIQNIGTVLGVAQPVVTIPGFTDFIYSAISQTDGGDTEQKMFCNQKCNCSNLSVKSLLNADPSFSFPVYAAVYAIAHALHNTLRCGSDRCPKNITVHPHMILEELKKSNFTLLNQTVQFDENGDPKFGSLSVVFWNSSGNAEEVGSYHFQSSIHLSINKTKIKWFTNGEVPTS
The protein sample (~1 μg) was mixed with Protein Thermal Shift Dye (Applied Biosystems) and 10~10,000 μM concentration of each amino acid in 20 μL of assay buffer and loaded to a MicroAmpR Fast Optical 48-Well Reaction Plate (Applied Biosystems). Specifically, to minimize the changes of the chemical and optical condition, the amino acid solutions were prepared by the exact same buffer used for the final dialysis of the protein, followed by the re-adjustment of the pH to ~ 8.0 by addition of either NaOH or HCl, and mixed with the protein diluted with the same buffer.
Fluorescent intensity was measured by the StepOne Real-Time PCR System (Applied Biosystems). The temperature was raised from 25 °C to 99 °C with a velocity of 0.022 °C/sec. The reporter and quencher for detection were set as “ROX” and “none”, respectively. Apparent melting transition temperature (Tm) was determined by the use of the maximum of the derivatives of the melt curve (dFluorescence/dT) by Protein Thermal Shift Software version 1.3 (Applied Biosystems).
The apparent dissociation constant (Kd-app) derived from the DSF results was estimated based on Eq 1 proposed by Schellman, assuming that the unfolding of the protein is reversible: ΔTm=Tm−T0=TmT0R/ΔH^0ln(1+[L]/Kd-app) (1) where [L] is the ligand concentration; Tm and T0 are the apparent melting transition temperatures in the presence and absence of the ligand; R is the gas constant; ΔH^0 is the enthalpy of unfolding at T0, assuming that there are no significant variations under the tested conditions. If the melt curves show biphasic profiles, the second (or the right side) Tm values were adopted for calculation, as described in the Results section.
For multiple regression analyses shown in Fig 2B, the apparent Tm values determined at different ligand concentrations were fitted to Eq 1 by using KaleidaGraph (Synergy Software), assuming that the change of the dissociation constant accompanied by the Tm shift is negligible.

Data set [1] deals with T1r2a/T1r3 full-length receptor (Oryzias latipes, UniProt A0A173M094+A0A173M0G2). The data set is described as follows: Ca2+-flux receptor response assay in Flip-In 293 cells stably expressing full-length T1r2a, T1r3 and Gα16-gust44. It is filed as cell-based, O. latipes. The following applies: for ΔRFU: average ± s.e.m.; for EC50: ΔRFUmax 104.3, read-out: EC50-est; for pEC50-est: log 1/EC50-est. The protocol: The Ca^2+-flux assay was performed using Flip-In 293 cell line (Life Technologies) stably expressing full-length T1r2a, T1r3, and Gα16-gust44 as described previously. The response stimulated by either 5 or 10 mM amino acid was represented asΔRFU (delta relative fluorescence unit) defined as the maximum fluorescence intensity induced by the addition of the amino acid, subtracted with that of an assay buffer in the absence of amino acid.
Sequence of T1r2a/T1r3 full-length receptor (A0A173M0G2 entry or part of it): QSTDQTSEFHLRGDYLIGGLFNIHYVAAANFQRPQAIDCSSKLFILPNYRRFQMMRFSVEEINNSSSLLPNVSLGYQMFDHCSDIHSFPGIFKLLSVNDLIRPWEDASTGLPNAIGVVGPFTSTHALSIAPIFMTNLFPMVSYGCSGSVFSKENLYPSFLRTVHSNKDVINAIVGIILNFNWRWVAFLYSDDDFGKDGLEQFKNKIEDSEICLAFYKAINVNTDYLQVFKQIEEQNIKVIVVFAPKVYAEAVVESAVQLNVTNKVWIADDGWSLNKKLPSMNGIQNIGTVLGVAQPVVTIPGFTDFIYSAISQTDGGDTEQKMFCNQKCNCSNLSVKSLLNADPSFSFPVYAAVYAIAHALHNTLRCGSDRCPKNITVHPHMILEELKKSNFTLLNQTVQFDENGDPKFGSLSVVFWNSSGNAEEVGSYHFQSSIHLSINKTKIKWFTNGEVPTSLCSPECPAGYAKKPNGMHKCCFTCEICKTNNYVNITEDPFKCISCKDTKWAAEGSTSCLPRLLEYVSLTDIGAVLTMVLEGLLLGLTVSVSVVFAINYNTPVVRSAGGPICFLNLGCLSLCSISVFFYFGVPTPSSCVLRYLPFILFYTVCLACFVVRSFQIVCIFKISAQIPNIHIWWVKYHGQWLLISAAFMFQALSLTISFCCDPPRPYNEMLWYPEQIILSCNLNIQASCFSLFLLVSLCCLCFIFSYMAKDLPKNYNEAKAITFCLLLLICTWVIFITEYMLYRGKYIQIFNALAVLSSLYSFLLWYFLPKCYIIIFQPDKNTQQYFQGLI
Sequence of T1r2a/T1r3 full-length receptor (A0A173M094 entry or part of it): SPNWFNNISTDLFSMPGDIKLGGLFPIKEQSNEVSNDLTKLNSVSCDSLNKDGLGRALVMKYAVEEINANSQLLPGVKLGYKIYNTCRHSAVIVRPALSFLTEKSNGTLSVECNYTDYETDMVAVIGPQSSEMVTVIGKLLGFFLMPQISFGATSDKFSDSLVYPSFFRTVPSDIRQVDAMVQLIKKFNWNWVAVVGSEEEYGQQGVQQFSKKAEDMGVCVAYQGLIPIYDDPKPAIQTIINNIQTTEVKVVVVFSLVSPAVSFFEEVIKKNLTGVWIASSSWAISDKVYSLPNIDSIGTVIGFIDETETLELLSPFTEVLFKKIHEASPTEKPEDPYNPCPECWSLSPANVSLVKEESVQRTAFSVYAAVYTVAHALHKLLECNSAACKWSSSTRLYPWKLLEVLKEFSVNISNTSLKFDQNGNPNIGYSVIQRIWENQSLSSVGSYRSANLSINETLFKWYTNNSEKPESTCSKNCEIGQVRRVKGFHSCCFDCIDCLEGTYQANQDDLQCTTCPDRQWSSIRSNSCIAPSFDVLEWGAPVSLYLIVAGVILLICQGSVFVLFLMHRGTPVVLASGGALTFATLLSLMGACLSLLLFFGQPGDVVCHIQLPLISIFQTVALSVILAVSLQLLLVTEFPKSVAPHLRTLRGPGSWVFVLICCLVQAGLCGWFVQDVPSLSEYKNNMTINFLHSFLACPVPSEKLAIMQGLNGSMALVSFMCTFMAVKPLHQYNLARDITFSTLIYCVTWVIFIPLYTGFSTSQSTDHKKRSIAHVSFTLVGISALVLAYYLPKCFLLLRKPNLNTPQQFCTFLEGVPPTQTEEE

For data set [2] the following is noted: cited from earlier work; for Hydropathy Index: hydrophobicity/hydrophilicity, ref Kyte & Doolittle, J. Mol. Biol., 157, 105 (1982); for pI: ref Handbook of Chemistry and Physics, CRC Press; for logKd_CW (polarity): transfer from cyclohexane to an aqueous solution, ref Radzicka & Wolfenden, Biochemistry, 27, 1664 (1988); for Es'c (steric effects) / πα (hydrophobicity) / HP (hydration potential): α-substituent group; for Es'c (steric effects) / πα (hydrophobicity): ref Akamatsu et al., J. Pharm. Sci., 83, 1026 (1994); for HP (hydration potential): ref Wolfenden et al., Biochemistry, 20, 849 (1981).

[3] abbreviates: from ΔTm at 0.1 mM via Eq 1, T0 326.1 K.
The mark [4] stands for this setting: from ΔTm at 1 mM via Eq 1, T0 326.1 K.
Where [5] appears, read: from ΔTm at 10 mM via Eq 1, T0 326.1 K.
Where [6] appears, read: 5 mM amino acid, n = 6 (n = 12 for L-glutamine).
[7] abbreviates: estimated from ΔRFU at 10 mM by Hill equation.

The structures appear in SMILES notation. Where two headings read alike, the source gives them in different places.

Turning to `CSCC[C@H](N)C(=O)O` [L-Met], the ΔTm at medaka T1r2a/T1r3LBD (0.1 mM amino acid) is reported as 0.45 ± 0.11 K. The ΔTm at medaka T1r2a/T1r3LBD (1 mM amino acid) was 6.17 ± 0.05 K. The ΔTm at medaka T1r2a/T1r3LBD (10 mM amino acid) was found to be 8.85 ± 0.06 K. For the same compound, the potency estimated from few doses at medaka T1r2a/T1r3LBD (setting [3]) was 604 µM. Also, the potency estimated from few doses at medaka T1r2a/T1r3LBD (setting [4]) is 146 µM. The potency estimated from few doses at medaka T1r2a/T1r3LBD (setting [5]) is 562 µM. Besides, on medaka T1r2a/T1r3LBD, the pKd-app stood at 3.25. The compound also came in with a ΔRFU in data set [1] (setting [6]) of -2.52 ± 1.72. The same compound displayed a ΔRFU in data set [1] (10 mM amino acid, n = 6) of 21.8 ± 7.73. The EC50 in data set [1] (setting [7]) is 37900 µM. The same compound gave a pEC50-est in data set [1] (from response at 10 mM) of 1.42. In data set [2], the “Hydropathy Index” value is 1.9, the pI is on record as 5.74, the “logKd_CW (polarity)” value was -1.73 and the “Es'c (steric effects)” value is -1.03. In data set [2], the “πα (hydrophobicity)” value is 0.99 and the “HP (hydration potential)” value was -1.48.

As for `N[C@@H](Cc1ccccc1)C(=O)O` [L-Phe], the ΔTm on medaka T1r2a/T1r3LBD (0.1 mM amino acid) was 0.30 ± 0.04 K. For the same compound, the ΔTm on medaka T1r2a/T1r3LBD (1 mM amino acid) is on record as 1.04 ± 0.12 K. Further, on medaka T1r2a/T1r3LBD (10 mM amino acid), the ΔTm stood at 3.53 ± 0.05 K. For the same compound, the potency estimated from few doses at medaka T1r2a/T1r3LBD (setting [3]) is 918 µM. In addition, on medaka T1r2a/T1r3LBD (setting [4]), the potency estimated from few doses is 2370 µM. Moreover, the potency estimated from few doses at medaka T1r2a/T1r3LBD (setting [5]) was 4370 µM. On medaka T1r2a/T1r3LBD, the pKd-app is reported as 2.36. Also, in data set [1] (setting [6]), the ΔRFU was determined as 2.08 ± 2.32. In data set [1] (10 mM amino acid, n = 6), this compound gave a ΔRFU of 22.4 ± 5.78. Besides, the EC50 in data set [1] (setting [7]) is 36500 µM. Further, the pEC50-est in data set [1] (from response at 10 mM) amounted to 1.44. Moreover, in data set [2], the “Hydropathy Index” value is 2.8, the pI is listed as 5.48, the “logKd_CW (polarity)” value was -2.19 and the “Es'c (steric effects)” value is given as -0.9. In data set [2], the “πα (hydrophobicity)” value was 1.78 and the “HP (hydration potential)” value is given as -0.76.

For `N[C@@H](CO)C(=O)O` [L-Ser], on medaka T1r2a/T1r3LBD (0.1 mM amino acid), the ΔTm is listed as -0.14 ± 0.03 K. The ΔTm on medaka T1r2a/T1r3LBD (1 mM amino acid) was -1.20 ± 0.03 K. Moreover, the ΔTm on medaka T1r2a/T1r3LBD (10 mM amino acid) is on record as 7.32 ± 0.06 K. The potency estimated from few doses at medaka T1r2a/T1r3LBD (setting [5]) is 956 µM. Further, the pKd-app at medaka T1r2a/T1r3LBD worked out at 3.02. In data set [1] (setting [6]), this compound gave a ΔRFU of 11.5 ± 2.07. The ΔRFU in data set [1] (10 mM amino acid, n = 6) is on record as 33.5 ± 7.59. Besides, the half-maximal effective concentration (EC50) in data set [1] (estimated from ΔRFU at 5 mM by Hill equation) is 40500 µM. Besides, the 50% effective concentration (EC50) in data set [1] (setting [7]) was 21100 µM. Moreover, the pEC50-est in data set [1] (from response at 5 mM) is 1.39. In data set [1] (from response at 10 mM), this compound displayed a pEC50-est of 1.67. Besides, in data set [2], the “Hydropathy Index” value is recorded as -0.8, the pI is on record as 5.68, the “logKd_CW (polarity)” value is on record as 2.49 and the “Es'c (steric effects)” value is -0.48. In data set [2], the “πα (hydrophobicity)” value is given as -0.19 and the “HP (hydration potential)” value was -5.06.

Regarding `C[C@@H](O)[C@H](N)C(=O)O` [L-Thr], the ΔTm at medaka T1r2a/T1r3LBD (0.1 mM amino acid) is recorded as -0.06 ± 0.09 K. In addition, at medaka T1r2a/T1r3LBD (1 mM amino acid), the ΔTm is -1.27 ± 0.08 K. The ΔTm at medaka T1r2a/T1r3LBD (10 mM amino acid) is listed as 6.99 ± 0.09 K. Also, the potency estimated from few doses on medaka T1r2a/T1r3LBD (setting [5]) is 1080 µM. For the same compound, the pKd-app at medaka T1r2a/T1r3LBD is listed as 2.97. In data set [1] (setting [6]), the ΔRFU turned out to be 3.20 ± 1.51. In addition, in data set [1] (10 mM amino acid, n = 6), the ΔRFU was determined as 18.2 ± 6.01. The EC50 in data set [1] (setting [7]) was 47400 µM. The same compound returned a pEC50-est in data set [1] (from response at 10 mM) of 1.32. Besides, in data set [2], the “Hydropathy Index” value was -0.7, the pI is reported as 5.6, the “logKd_CW (polarity)” value is on record as 1.89 and the “Es'c (steric effects)” value was -0.73. Moreover, in data set [2], the “πα (hydrophobicity)” value was 0.07 and the “HP (hydration potential)” value is -4.88.

For the compound `CC(C)[C@H](N)C(=O)O` [L-Val], the ΔTm on medaka T1r2a/T1r3LBD (0.1 mM amino acid) worked out at 0.11 ± 0.24 K. Moreover, the ΔTm on medaka T1r2a/T1r3LBD (1 mM amino acid) was -0.77 ± 0.14 K. For the same compound, the ΔTm at medaka T1r2a/T1r3LBD (10 mM amino acid) stood at 7.85 ± 0.03 K. At medaka T1r2a/T1r3LBD (setting [3]), the potency estimated from few doses was 2630 µM. Further, the potency estimated from few doses on medaka T1r2a/T1r3LBD (setting [5]) was 793 µM. Also, at medaka T1r2a/T1r3LBD, the pKd-app is recorded as 3.10. This compound also displayed a ΔRFU in data set [1] (setting [6]) of 3.89 ± 1.23. Moreover, the ΔRFU in data set [1] (10 mM amino acid, n = 6) is recorded as 32.4 ± 7.56. In addition, the EC50 in data set [1] (setting [7]) is 22200 µM. The same compound returned a pEC50-est in data set [1] (from response at 10 mM) of 1.65. Further, in data set [2], the “Hydropathy Index” value is recorded as 4.2, the pI is listed as 5.96, the “logKd_CW (polarity)” value is recorded as -2.97 and the “Es'c (steric effects)” value was -1.29. Besides, in data set [2], the “πα (hydrophobicity)” value is reported as 1 and the “HP (hydration potential)” value is on record as 1.99.
